≈ marks a conversion by molar mass, not a printed value. Like-named read-outs stand apart in the source and are kept apart here. Values belong to the compound of their own block, whether it stands above or below them.
Tests used:
[1] = for Solubility ratio to FB: FB: drug alone; for Solubility ratio to FB: FB/AT: drug with tartaric acid; for Solubility ratio to FB: FB/AT/βCD / Water solubility, drug concentration F: FB/AT/βCD: drug/tartaric acid/β-CD multicomponent complex; for Water solubility, drug concentration F: FB/βCD: drug/β-cyclodextrin complex; for Water solubility, drug concentration F: FB/DIMEB: drug/DIMEB complex; for Water solubility, drug concentration F: FB/HPβ-CD: drug/HPβ-CD complex; for Water solubility, drug concentration F: FB/RAMEB: drug/RAMEB complex; for Water solubility, drug concentration F: FB/α-CD: drug/α-CD complex; for Water solubility, drug concentration F: FB/γ-CD: drug/γ-CD complex
[2] = physchem; details: water
[3] = simultaneous administration of citric acid; Tokumura et al.; cited from earlier work
[4] = acidic conditions; Kikuchi et al.; cited from earlier work
[5] = 1 mmol terfenadine, 15 ml water, 6 mmol acetic or 4 mmol formic acid
[6] = Effect of some acids on the β-CD solubility; type: physicochemical
Protocol: In a test tube 1000 mg of β-CD in 5 ml of a solution having different concentrations of an acid selected from tartaric, citric, lactic acid, were let to equilibrate for two days at 28*/-2° C. under stirring. The solution was filtered and β-CD concentration was determined by HPLC.

[7] = Table 1, drug tartrate in β-CD solution, room temperature
[8] = drug concentration F: FB, Table 1, basic-type drug alone, room temperature
[9] = drug concentration F: FB, Table 3, basic-type drug alone
[10] = drug concentration F: FB/AT, Table 1, drug with tartaric acid, room temperature

Solubility ratio to FB: FB ([1]; Table 1): 1 x
Solubility ratio to FB: FT/βCD ([1]; Table 1, drug tartrate in β-CD solution): 1975 x
Water solubility, drug concentration F: FT/βCD [1, 7]: 7900 µg/mL
Solubility ratio to FB: FB/AT ([1]; Table 1): 817.5 x
Solubility ratio to FB: FB/AT/βCD ([1]; Table 1): 22500 x
Water solubility, drug concentration F: FB/AT/βCD ([1]; Table 1, room temperature): 90000 µg/mL
Solubility ratio to FB: FB/βCD ([1]; Table 1, drug/β-CD complex): 16 x
Water solubility, drug concentration F: FB/βCD ([1]; Table 1, room temperature): 65 µg/mL
Solubility ratio to FB: FB/DIMEB ([1]; Table 3): 303 x
Solubility ratio to FB: FB/HPβ-CD ([1]; Table 3): 86 x
Solubility ratio to FB: FB/RAMEB ([1]; Table 3): 275 x
Solubility ratio to FB: FB/α-CD ([1]; Table 3): 6 x
Solubility ratio to FB: FB/γ-CD ([1]; Table 3): 6.6 x
Water solubility, drug concentration F: FB/DIMEB ([1]; Table 3): 1245 µg/mL
Water solubility, drug concentration F: FB/HPβ-CD ([1]; Table 3): 353 µg/mL
Water solubility, drug concentration F: FB/RAMEB ([1]; Table 3): 1100 µg/mL
Water solubility, drug concentration F: FB/α-CD ([1]; Table 3): 24 µg/mL
Water solubility, drug concentration F: FB/γ-CD ([1]; Table 3): 27 µg/mL
solubility [2, 8]: 4 µg/mL (≈ 8.72 µM)
solubility [2, 9]: 4 µg/mL (≈ 8.72 µM)
solubility [2, 10]: 3270 µg/mL (≈ 7130 µM)
Structure (SMILES): COc1ccc(CCN2CCC(Nc3nc4ccccc4n3Cc3ccc(F)cc3)CC2)cc1 [Astemizole]

Structure (SMILES): C(=C\c1ccccc1)/CN1CCN(C(c2ccccc2)c2ccccc2)CC1 [Cinnarizine]
Difference in bioavailability between cinnarizine + citric acid and its β-cyclodextrin complex + citric acid [3]: no significant difference

Solubility ratio to FB: FB ([1]; Table 2): 1 x
Solubility ratio to FB: FC/βCD ([1]; Table 2, drug citrate in β-CD solution): 500 x
Water solubility, drug concentration F: FC/βCD ([1]; Table 2, drug citrate in β-CD solution, room temperature): 20000 µg/mL
Solubility ratio to FB: FB/AC ([1]; Table 2, drug with citric acid): 155 x
Solubility ratio to FB: FB/AC/βCD ([1]; Table 2, drug/citric acid/β-CD multicomponent complex): 1925 x
Water solubility, drug concentration F: FB/AC/βCD ([1]; Table 2, drug/citric acid/β-CD multicomponent complex, room temperature): 77000 µg/mL
Solubility ratio to FB: FB/CD ([1]; Table 2, drug/β-CD complex): 7 x
Water solubility, drug concentration F: FB/CD ([1]; Table 2, drug/β-CD complex, room temperature): 280 µg/mL
solubility ([2]; drug concentration F: FB, Table 2, basic-type drug alone, room temperature): 40 µg/mL (≈ 98.5 µM)
solubility ([2]; drug concentration F: FB/AC, Table 2, drug with citric acid, room temperature): 6200 µg/mL (≈ 15300 µM)
Structure (SMILES): CCN(CC)CCOc1ccc(C(=C(Cl)c2ccccc2)c2ccccc2)cc1 [Clomifene]

Structure (SMILES): O=c1[nH]c2ccccc2n1CCCN1CCC(n2c(=O)[nH]c3cc(Cl)ccc32)CC1 [Domperidone]
Solubility ratio to FB: FB ([1]; Table 1): 1 x
Solubility ratio to FB: FB/AT ([1]; Table 1): 2000 x
Solubility ratio to FB: FB/AT/βCD ([1]; Table 1): 5000 x
Water solubility, drug concentration F: FB/AT/βCD ([1]; Table 1, room temperature): 25000 µg/mL
Solubility ratio to FB: FB/βCD ([1]; Table 1, drug/β-CD complex): 4.4 x
Water solubility, drug concentration F: FB/βCD ([1]; Table 1, room temperature): 22 µg/mL
Solubility ratio to FB: FB/AT/DIMEB ([1]; Table 3): 600 x
Solubility ratio to FB: FB/AT/HPβ-CD ([1]; Table 3): 10000 x
Solubility ratio to FB: FB/AT/RAMEB ([1]; Table 3): 6000 x
Solubility ratio to FB: FB/AT/α-CD ([1]; Table 3): 5000 x
Solubility ratio to FB: FB/AT/γ-CD ([1]; Table 3): 6000 x
Solubility ratio to FB: FB/DIMEB ([1]; Table 3): 112 x
Solubility ratio to FB: FB/HPβ-CD ([1]; Table 3): 32 x
Solubility ratio to FB: FB/RAMEB ([1]; Table 3): 56 x
Solubility ratio to FB: FB/α-CD ([1]; Table 3): 6.6 x
Solubility ratio to FB: FB/γ-CD ([1]; Table 3): 8 x
Water solubility, drug concentration F: FB/DIMEB ([1]; Table 3): 560 µg/mL
Water solubility, drug concentration F: FB/HPβ-CD ([1]; Table 3): 160 µg/mL
Water solubility, drug concentration F: FB/RAMEB ([1]; Table 3): 280 µg/mL
Water solubility, drug concentration F: FB/AT/DIMEB ([1]; Table 3, drug/tartaric acid/DIMEB multicomponent complex): 30000 µg/mL
Water solubility, drug concentration F: FB/AT/HPβ-CD ([1]; Table 3, drug/tartaric acid/HPβ-CD multicomponent complex): 50000 µg/mL
Water solubility, drug concentration F: FB/AT/RAMEB ([1]; Table 3, drug/tartaric acid/RAMEB multicomponent complex): 30000 µg/mL
Water solubility, drug concentration F: FB/AT/α-CD ([1]; Table 3, drug/tartaric acid/α-CD multicomponent complex): 25000 µg/mL
Water solubility, drug concentration F: FB/AT/γ-CD ([1]; Table 3, drug/tartaric acid/γ-CD multicomponent complex): 30000 µg/mL
Water solubility, drug concentration F: FB/α-CD ([1]; Table 3): 33 µg/mL
Water solubility, drug concentration F: FB/γ-CD ([1]; Table 3): 40 µg/mL
solubility [2, 8]: 5 µg/mL (≈ 11.7 µM)
solubility [2, 9]: 5 µg/mL (≈ 11.7 µM)
solubility [2, 10]: 10000 µg/mL (≈ 23500 µM)

Structure (SMILES): CCCCCCNC(=O)n1cc(F)c(=O)[nH]c1=O [HCFU, 1-hexylcarbamoyl-5-fluorouracil]
Chemical stability [4]: chemically stable under acidic conditions

Water solubility, drug concentration F: FT/βCD [1, 7]: 21000 µg/mL
Water solubility, drug concentration F: FB/AT/βCD ([1]; Table 1, room temperature): 110000 µg/mL
Water solubility, drug concentration F: FB/βCD ([1]; Table 1, room temperature): 1240 µg/mL
solubility [2, 8]: 50 µg/mL (≈ 94.1 µM)
solubility [2, 10]: 21000 µg/mL (≈ 39500 µM)
Structure (SMILES): CC(=O)N1CCN(c2ccc(OCC3COC(Cn4ccnc4)(c4ccc(Cl)cc4Cl)O3)cc2)CC1 (stereo not drawn) [Ketoconazole]

Dissolution attempt with acid without cyclodextrin [5]: not successful
Structure (SMILES): CC(C)(C)c1ccc(C(O)CCCN2CCC(C(O)(c3ccccc3)c3ccccc3)CC2)cc1 (stereo not drawn) [Terfenadine]

β-CD concentration ([6]; citric acid 0 mg/ml, 2880 min): 18.3 mg/mL
β-CD concentration ([6]; citric acid 9.6 mg/ml, 2880 min): 34.1 mg/mL
β-CD concentration ([6]; citric acid 19.2 mg/ml, 2880 min): 47.9 mg/mL
β-CD concentration ([6]; citric acid 48.0 mg/ml): 86.1 mg/mL
β-CD concentration ([6]; citric acid 96.0 mg/ml, 2880 min): 140.1 mg/mL
β-CD concentration ([6]; citric acid 144.0 mg/ml, 2880 min): 195.7 mg/mL
Effect of tartaric and citric acid on water solubility of β-CD ([6]; depending on acid concentration): remarkably enhance the water solubility
β-CD concentration ([6]; lactic acid 0 mg/ml, 2880 min): 18.3 mg/mL
β-CD concentration ([6]; lactic acid 9.0 mg/ml, 2880 min): 18.8 mg/mL
β-CD concentration ([6]; lactic acid 22.5 mg/ml, 2880 min): 24.2 mg/mL
β-CD concentration ([6]; lactic acid 67.5 mg/ml, 2880 min): 35.8 mg/mL
Effect of lactic acid on water solubility of β-CD ([6]; lactic acid, compared with tartaric and citric acid): lower effect
Increase of the β-CD solubility in the binary system acid-β-CD ([6]; tartaric 11 and citric 17 mg/ml respectively): about 2 times
β-CD concentration ([6]; tartaric acid 0 mg/ml, 2880 min): 18.3 mg/mL
β-CD concentration ([6]; tartaric acid 15.0 mg/ml, 2880 min): 31.4 mg/mL
β-CD concentration ([6]; tartaric acid 112.5 mg/ml, 2880 min): 83.7 mg/mL
Structure (SMILES): OC[C@H]1O[C@@H]2O[C@H]3[C@H](O)[C@@H](O)[C@@H](O[C@H]4[C@H](O)[C@@H](O)[C@@H](O[C@H]5[C@H](O)[C@@H](O)[C@@H](O[C@H]6[C@H](O)[C@@H](O)[C@@H](O[C@H]7[C@H](O)[C@@H](O)[C@@H](O[C@H]8[C@H](O)[C@@H](O)[C@@H](O[C@H]1[C@H](O)[C@H]2O)O[C@@H]8CO)O[C@@H]7CO)O[C@@H]6CO)O[C@@H]5CO)O[C@@H]4CO)O[C@@H]3CO [β-CD]

Source: patent US5855916A, “Highly soluble multicomponent inclusion complexes containing a base type drug, an acid and a cyclodextrin” (priority 1993, dated 1999)
